One data set deals with HDAC6 (Homo sapiens (Human), UniProt Q9UBN7). In words: HDAC6 inhibitory activity (fluorogenic HDAC substrate). In kind it is biochemical. As to conditions: culture 30° C. for 1 hour. As for the experimental part: (§1) 2×HDAC enzymes were dispensed in each well of the reaction plate except for the control well without HDAC enzyme, and buffer was dispensed in the control well without the enzyme. Using acoustic technology (Echo550, nanoliter range), compounds dissolved in 100% DMSO were added to the enzyme mixture, spun down, and pre-cultured at room temperature for 10 minutes. All reaction wells were placed with a 2× substrate mixture (fluorogenic HDAC substrate) to initiate the reaction and then spun down. Culture was performed at 30° C. for 1 hour for HDAC6 and 2 hours for HDAC8.
HDAC6, sequence (Q9UBN7 whole entry): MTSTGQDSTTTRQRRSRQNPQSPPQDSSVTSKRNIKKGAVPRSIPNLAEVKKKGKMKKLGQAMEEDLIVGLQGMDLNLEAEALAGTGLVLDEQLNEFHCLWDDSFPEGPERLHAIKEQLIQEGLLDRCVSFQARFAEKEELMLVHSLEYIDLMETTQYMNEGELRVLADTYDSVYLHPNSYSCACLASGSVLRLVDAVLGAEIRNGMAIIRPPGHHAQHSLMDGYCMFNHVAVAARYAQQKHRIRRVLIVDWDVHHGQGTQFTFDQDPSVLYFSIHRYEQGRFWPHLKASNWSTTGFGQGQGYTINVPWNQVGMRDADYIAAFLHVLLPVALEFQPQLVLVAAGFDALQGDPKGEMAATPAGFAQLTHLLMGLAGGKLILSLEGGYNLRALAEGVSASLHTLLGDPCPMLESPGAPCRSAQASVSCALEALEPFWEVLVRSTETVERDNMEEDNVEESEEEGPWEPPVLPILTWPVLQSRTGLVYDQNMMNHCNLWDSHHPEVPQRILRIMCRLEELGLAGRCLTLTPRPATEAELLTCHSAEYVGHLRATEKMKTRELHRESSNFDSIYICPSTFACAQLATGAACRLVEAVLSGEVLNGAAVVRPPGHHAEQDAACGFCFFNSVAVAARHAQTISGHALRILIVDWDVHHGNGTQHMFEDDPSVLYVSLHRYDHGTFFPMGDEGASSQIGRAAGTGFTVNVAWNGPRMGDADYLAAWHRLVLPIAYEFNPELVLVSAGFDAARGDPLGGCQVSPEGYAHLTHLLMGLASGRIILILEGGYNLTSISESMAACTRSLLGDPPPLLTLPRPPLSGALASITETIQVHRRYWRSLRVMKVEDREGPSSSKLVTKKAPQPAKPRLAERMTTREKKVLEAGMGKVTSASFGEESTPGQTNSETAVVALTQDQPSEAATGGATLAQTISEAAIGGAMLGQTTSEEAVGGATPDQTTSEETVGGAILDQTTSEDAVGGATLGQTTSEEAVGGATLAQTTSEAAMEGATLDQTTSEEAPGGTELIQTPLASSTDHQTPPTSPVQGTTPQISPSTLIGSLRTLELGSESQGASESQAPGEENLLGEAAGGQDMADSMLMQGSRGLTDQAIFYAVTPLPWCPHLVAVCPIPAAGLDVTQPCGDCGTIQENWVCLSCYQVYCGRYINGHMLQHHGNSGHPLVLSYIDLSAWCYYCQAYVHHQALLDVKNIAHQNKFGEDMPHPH
(§2) Afterwards, a developer was added along with trichostatin A to halt the reaction and develop fluorescence. Dynamics measurements were performed with Envision (Ex/Em=360/460 nm) for 20 minutes with 5-minute intervals, and values from endpoint reading were taken for analysis after the phenomenon reached a plateau.

A further data set has as its target HDAC8 (Homo sapiens (Human), UniProt Q9BY41). In words: HDAC8 inhibitory activity (fluorogenic HDAC substrate). It counts as biochemical. As to conditions: culture 30° C. for 2 hours. The method, then:
as §1, §2

A short description of the next data set: MS (in mouse). It counts as in vitro ADME. Set-up: unit not given here.
Another data set in a line: MS (in human). It counts as in vitro ADME. The arrangement: unit not given here.

Consider 27 compounds from patent publication US20250197369A1, “NOVEL HETEROCYCLIC INHIBITOR FOR HISTONE DEACETYLASE, AND PHARMACEUTICAL COMPOSITION COMPRISING SAME” (SOOKMYUNG WOMEN'S UNIVERSITY INDUSTRY-ACADEMIC COOPERATION …, priority 2022, published 2025).

One may read the IC50 as the concentration needed to halve the response being measured.

HDAC8, sequence (Q9BY41 whole entry, species assumed): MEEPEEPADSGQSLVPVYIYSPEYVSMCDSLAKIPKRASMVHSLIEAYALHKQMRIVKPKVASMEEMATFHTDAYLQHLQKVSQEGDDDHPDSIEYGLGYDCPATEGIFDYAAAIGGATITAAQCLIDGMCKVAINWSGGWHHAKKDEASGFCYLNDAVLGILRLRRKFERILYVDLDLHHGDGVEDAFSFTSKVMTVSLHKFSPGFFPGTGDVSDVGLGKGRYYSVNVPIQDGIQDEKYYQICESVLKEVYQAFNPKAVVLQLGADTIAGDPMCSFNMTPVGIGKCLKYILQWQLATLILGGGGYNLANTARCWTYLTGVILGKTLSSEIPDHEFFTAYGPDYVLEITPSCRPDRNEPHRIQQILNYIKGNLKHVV

Take `O=C(NO)c1ccc2cn(Cc3ccccc3)nc2c1` [Compound 50, 2-Benzyl-2H-indazole-6-carboxylic acid hydroxyamide]: the IC50 is 2.6 nM at HDAC6 and 1320 nM at HDAC8. Also, the “MS (in mouse)” value in “MS (in mouse)” turned out to be 79.3. For the same compound, the “MS (in human)” value in “MS (in human)” is 97.6.

For `COc1ccc(Cn2cc3ccc(C(=O)NO)cc3n2)cc1` [Compound 51, 2-(4-Methoxybenzyl)-2H-indazole-6-carboxylic acid hydroxyamide], the IC50 at HDAC6 came to 5.4 nM; on HDAC8, 765 nM. The “MS (in mouse)” value in the data set “MS (in mouse)” was determined as 98.6. For the same compound, in “MS (in human)”, the “MS (in human)” value was 76.7.

As for `Cc1ccc(Cn2cc3ccc(C(=O)NO)cc3n2)cc1` [Compound 52, 2-(4-Methylbenzyl)-2H-indazole-6-carboxylic acid hydroxyamide], the figures for the IC50 against HDAC6 and against HDAC8 were 7.4 nM and 699 nM, respectively.

`O=C(NO)c1ccc2cn(Cc3ccc(F)cc3)nc2c1` [Compound 53, 2-(4-Fluorobenzyl)-2H-indazole-6-carboxylic acid hydroxyamide]: the IC50 amounted to 5.9 nM against HDAC6 and 932 nM against HDAC8. Further, in “MS (in mouse)”, the “MS (in mouse)” value was 71.3. Moreover, the “MS (in human)” value in the data set “MS (in human)” worked out at 85.9.

With `O=C(NO)c1ccc2cn(Cc3ccc(Cl)cc3)nc2c1` [Compound 54, 2-(4-Chlorobenzyl)-2H-indazole-6-carboxylic acid hydroxyamide], the IC50 at HDAC6 stood at 2.7 nM; at HDAC8 it was 776 nM. For the same compound, the “MS (in mouse)” value in the data set “MS (in mouse)” came to 40.8. Further, the “MS (in human)” value in “MS (in human)” worked out at 49.3.

Regarding `O=C(NO)c1ccc2cn(Cc3ccc(Br)cc3)nc2c1` [Compound 55, 2-(4-Bromobenzyl)-2H-indazole-6-carboxylic acid hydroxyamide], the IC50 against HDAC6 stood at 3.4 nM; at HDAC8 it was 593 nM.

For the compound `O=C(NO)c1ccc2cn(Cc3cccc(OC(F)(F)F)c3)nc2c1` [Compound 56, 2-(3-Trifluoromethoxybenzyl)-2H-indazole-6-carboxylic acid hydroxyamide], the IC50 at HDAC6 came out at 4.4 nM; against HDAC8, 1020 nM.

With `O=C(NO)c1ccc2cn(Cc3ccc(OC(F)(F)F)cc3)nc2c1` [Compound 57, 2-(4-Trifluoromethoxybenzyl)-2H-indazole-6-carboxylic acid hydroxyamide], the half-maximal inhibitory concentration (IC50) against HDAC6 was determined as 5.5 nM; on HDAC8, 1070 nM.

Consider `O=C(NO)c1ccc2cn(Cc3ccc4ccccc4c3)nc2c1` [Compound 58, 2-Naphthalen-2-ylmethyl-2H-indazole-6-carboxylic acid hydroxyamide], for which the IC50 came out at 4.2 nM at HDAC6 and 870 nM against HDAC8.

`O=C(NO)c1ccc2cn(CCc3ccccc3)nc2c1` [Compound 59, 2-Phenethyl-2H-indazole-6-carboxylic acid hydroxyamide]: the IC50 amounted to 4 nM against HDAC6 and 1170 nM at HDAC8.

`COc1ccc(CCn2cc3ccc(C(=O)NO)cc3n2)cc1` [Compound 60, 2-(2-4-Methoxyphenylethyl)-2H-indazole-6-carboxylic acid hydroxyamide]: the IC50 against HDAC6 came to 4.7 nM; against HDAC8, 1100 nM.

With `O=C(NO)c1ccc2cn(Cc3cc(F)cc(F)c3)nc2c1` [Compound 61, 2-(3,5-Difluorobenzyl)-2H-indazole-6-carboxylic acid hydroxyamide], the half-inhibitory concentration (IC50) is 3.9 nM against HDAC6 and 877 nM against HDAC8.

In the case of `O=C(NO)c1ccc2cn(Cc3ccc(OC(F)F)cc3)nc2c1` [Compound 62, 2-(4-Difluoromethoxybenzyl)-2H-indazole-6-carboxylic acid hydroxyamide], the figures for the IC50 at HDAC6 and against HDAC8 were 4.1 nM and 500 nM, respectively.

For `O=C(NO)c1ccc2cn(Cc3ccc(-c4ccccc4)cc3)nc2c1` [Compound 63, 2-Biphenyl-4-ylmethyl-2H-indazole-6-carboxylic acid hydroxyamide], the half-inhibitory concentration (IC50) against HDAC6 came to 3.6 nM; against HDAC8, 1290 nM.

`CC(C)c1ccc(Cn2cc3ccc(C(=O)NO)cc3n2)cc1` [Compound 64, 2-(4-Isopropylbenzyl)-2H-indazole-6-carboxylic acid hydroxyamide]: the IC50 is 29.3 nM against HDAC6 and 2860 nM against HDAC8.

`O=C(NO)c1ccc2cn(CCc3ccc(F)cc3)nc2c1` [Compound 65, 2-(2-4-Fluorophenylethyl)-2H-indazole-6-carboxylic acid hydroxyamide]: the figures for the IC50 against HDAC6 and against HDAC8 were 6.7 nM and 1520 nM, respectively.

As for `O=C(NO)c1ccc2cn(Cc3cccc(F)c3)nc2c1` [Compound 66, 2-(3-Fluorobenzyl)-2H-indazole-6-carboxylic acid hydroxyamide], the half-inhibitory concentration (IC50) on HDAC6 came out at 1.8 nM; against HDAC8, 1130 nM.

Regarding `O=C(NO)c1ccc2cn(Cc3cccc(Cl)c3)nc2c1` [Compound 67, 2-(3-Chlorobenzyl)-2H-indazole-6-carboxylic acid hydroxyamide], the concentration for half-maximal inhibition (IC50) on HDAC6 amounted to 1.3 nM; against HDAC8, 8390 nM.

For `O=C(NO)c1ccc2cn(Cc3cccc(C(F)(F)F)c3)nc2c1` [Compound 68, 2-(3-Trifluoromethylbenzyl)-2H-indazole-6-carboxylic acid hydroxyamide], the figures for the half-maximal inhibitory concentration (IC50) against HDAC6 and against HDAC8 were 3.3 nM and 738 nM, respectively.

As for `O=C(NO)c1ccc2cn(Cc3ccc(C(F)(F)F)cc3)nc2c1` [Compound 69, 2-(4-Trifluoromethylbenzyl)-2H-indazole-6-carboxylic acid hydroxyamide], the half-inhibitory concentration (IC50) was 3 nM at HDAC6 and 598 nM on HDAC8.

Turning to `COc1cccc(Cn2cc3ccc(C(=O)NO)cc3n2)c1` [Compound 70, 2-(3-Methoxybenzyl)-2H-indazole-6-carboxylic acid hydroxyamide], the half-maximal inhibitory concentration (IC50) against HDAC6 was 1.8 nM; against HDAC8, 967 nM.

For `O=C(NO)c1ccc2cn(Cc3cccc(OCc4ccccc4)c3)nc2c1` [Compound 71, 2-(3-Benzyloxybenzyl)-2H-indazole-6-carboxylic acid hydroxyamide], the figures for the IC50 against HDAC6 and against HDAC8 were 13.5 nM and 2120 nM, respectively.

Regarding `COc1cc(Cn2cc3ccc(C(=O)NO)cc3n2)cc(OC)c1` [Compound 72, 2-(3,5-Dimethoxybenzyl)-2H-indazole-6-carboxylic acid hydroxyamide], the IC50 worked out at 3.8 nM at HDAC6 and 814 nM against HDAC8.

Turning to `O=C(NO)c1ccc2cn(Cc3cccc(Oc4ccccc4)c3)nc2c1` [Compound 73, 2-(3-Phenoxybenzyl)-2H-indazole-6-carboxylic acid hydroxyamide], the half-maximal inhibitory concentration (IC50) against HDAC6 amounted to 22.8 nM; against HDAC8, 2000 nM.

With `O=C(NO)c1cc2nn(Cc3ccccc3)cc2cc1F` [Compound 88, 2-Benzyl-5-fluoro-2H-indazole-6-carboxylic acid hydroxyamide], the IC50 on HDAC6 was 74.3 nM; on HDAC8, 3840 nM.

As to `O=C(NO)c1cc2nn(Cc3cccc(Cl)c3)cc2cc1F` [Compound 89, 2-(3-chlorobenzyl)-5-fluoro-2H-indazole-6-carboxylic acid hydroxyamide], the half-inhibitory concentration (IC50) is 30.3 nM against HDAC6 and 2370 nM against HDAC8.

With `COc1cccc(Cn2cc3cc(F)c(C(=O)NO)cc3n2)c1` [Compound 90, 2-(3-Methoxybenzyl)-5-fluoro-2H-indazole-6-carboxylic acid hydroxyamide], the IC50 was determined as 75.4 nM against HDAC6 and 2850 nM against HDAC8.
